What all share (format): biochemical
Assay [1] has as its target 12α-HSDH aus Clostridium sp. group P strain 48-50, Wildtypenzym (Clostridium sp., UniProt P21215). As to the kind of experiment: Product inhibition of 12α-HSDH by 12-ketochenodeoxycholic acid. The note with it: loss of activity at 5 % Umsatz; 100 % = activity at 0 % Umsatz (5mM CS); product concentration not given. The text has this: "Poduktinhibition" der 12α-HSDH beschreibt die Verringerung der enzymatischen Aktivität in Gegenwart eines bei einer durch das Enzym katalysierten enzymatischen Umsetzung gebildeten Produkts. Bei Umsetzung zu CS ist so z.B. eine Inhibition durch 12-Keto-CDCS zu beobachten. Eine "Verringerung der Produktinhibition" beschreibt die verringerte prozentuale Abnahme der Enzymaktivität einer erfindungsgemäß eingesetzten Enzymmutante im Vergleich zu einem Referenzsystem, wie z.B. dem nativen HSDH-Enzym, jeweils bezogen auf die bei 0 % Umsatz (entsprechend 5mM CS) ermittelte Enzymaktivität als 100 %-Aktivitätswert. Diese Verringerung kann, wie im experimentellen Teil, bzw. in der Legende zu Figur 9 beschrieben, bestimmt werden. Verringerungen der Produktinhibition können auch über das Verhältnis der Restaktivitäten von Mutante zu Referenzenzym jeweils bestimmt bei gleichem prozentualen Umsatz, ausgedrückt werden. So kann die ererfindungsgemäß eingesetzte Mutante eine um den Faktor 1,1 bis 100, wie z.B. 1,5 bis 20 oder 2 bis 10 erhöhte Aktivität besitzen.
Die Aktivität wird wie folgt definiert: 1 U des Enzyms entspricht der Enzymmenge, welche die Umsetzung von 1 µmol/min einer 5 mM Cholsäurelösung in KaliumphosphatPuffer (50 mM, pH 8,0) bei Raumtemperatur (d.h. ca. 20 °C-23 °C) katalysiert. […]

Assay [2] deals with NADPH Dehydrogenase aus Bacillus stearothermophilus Sulfit Reduktase (EC 1.8.1.2), SEQ ID NO: 28. Briefly: NADPH oxidation with riboflavin as electron acceptor, tolerance to cholic acid. The following applies: activity with 0,1 M Cholsäure, 100% = ohne Cholsäure; 10 µM Riboflavin, 100 µM NADPH, 50 mM Tris-HCl (pH 8). On the procedure: (§1) Die NADPH-Oxidation unter Verwendung von Riboflavin als Elektronenakzeptor wurde in 1 ml Reaktionsmedium, enthaltend 2-50 µl Enzymlösung, 50 mM Tris-HCl (pH 8), 10 µM Riboflavin, 100 µM NADPH mit und ohne 0,1 M Cholsäure bestimmt. Die Oxidation von NADPH wurde über die Abnahme der Extinktion bei 340 nm spektrophotometrisch aufgezeichnet. Die Aktivitätseinheit (uM NADPH oxidiert/min) wurde mit Hilfes des millimolaren Extinktionscoeffizienten für NADPH von 6,22 mM^-1 cm^-1 bei 340 nm bestimmt.
(§2) Folgende Enzyme wurden getestet: NADPH Dehydrogenase aus Bacillus stearothermophilus Sulfit Reduktase, Flavin-Subunit von Sulfit-Reduktase aus E. coli und NAD(P)H-Flavin Reduktase aus E. coli. Die Ergebnisse sind in folgender Tabelle 3 zusammengefasst: TABELLE 3

The target of assay [3] is T1, NAD(P)H-Flavin Reduktase aus E. coli (EC 1.5.1.29 / 1.16.1.3), SEQ ID NO: 30 (Escherichia coli, UniProt P0AEN1).
T1 construct: made in house; host or cells: E. coli (cell lysate)
The assay is described as above. The following applies: activity with 0,1 M Cholsäure, 100% = ohne Cholsäure; 10 µM Riboflavin, 100 µM NADPH, 50 mM Tris-HCl (pH 8); read-out: Mit 0, 1 M Cholsäure, U/ml E. coli Zell-Lysate (%). On the procedure: as §1, §2

Assay [4] concerns the target T2, NADPH Dehydrogenase aus Sulfit-Reduktase (E. coli); Flavin-Subunit von Sulfit-Reduktase aus E. coli (Escherichia coli, UniProt P38038).
T2 construct: made in house; host or cells: E. coli (cell lysate)
The assay is described as above. The note with it: activity with 0,1 M Cholsäure, 100% = ohne Cholsäure; 10 µM Riboflavin, 100 µM NADPH, 50 mM Tris-HCl (pH 8). On the procedure:
as §1, §2

Assay [5] concerns the target T3, Flavodoxin Reduktase aus E. coli (EC 1.18.1.2), SEQ ID NO: 26 (Escherichia coli, UniProt P28861).
T3 construct: made in house; host or cells: E. coli
Briefly: NADPH oxidation with DCIP as electron acceptor, tolerance to cholic acid. The note with it: remaining activity with 0,1 M Cholsäure, 100% = ohne Cholsäure; 75 µM DCIP, 100 µM NADPH, 50 mM Tris-HCl (pH 8); read-out: Mit 0, 1 M Cholsäure, U/mg Protein (%). The method, then:
(§3) Die NADPH-Dehydrogenase Aktivität wurde unter Verwendung von Dichlorphenolindophenol (DCIP) als Substrat bestimmt. Die Reaktion wurde durch Zugabe von Enzym (2-50 µl) zu 1 ml Reaktionsgemisch, enthaltend 50 mM Tris-HCl (pH 8), 75 µM DCIP, 100 µM NADPH mit bzw. ohne 0,1 M Cholsäure gestartet. Die Reduktion von DCIP wurde durch Abnahme der Extinktion bei 600 nm spektrophotometrisch bestimmt. Die Aktivitätseinheit (µM DCIP reduziert/min) wurde mit Hilfe des Extinktions-Coeffizienten von DCIP von 20 mM^-1 cm^-1 bei 600 nm bestimmt.
(§4) Folgende Enzyme wurden getestet: Flavodoxin Reduktase aus E. coli, Reduktase Domäne der CYP102A1 aus Bacillus megaterium; Glutathion Reduktase aus Saccharomyces cerevisiae und Diaphorase aus Clostridium kluyveri. Die Ergebnisse sind in der folgenden Tabelle 2 zusammengestellt.

Assay [6] addresses T4, Glutathion Reduktase aus Saccharomyces cerevisiae (Saccharomyces cerevisiae, UniProt P41921).
T4 construct: purchased Sigma
T4 sequence (P41921 1-467 isoform P41921-2): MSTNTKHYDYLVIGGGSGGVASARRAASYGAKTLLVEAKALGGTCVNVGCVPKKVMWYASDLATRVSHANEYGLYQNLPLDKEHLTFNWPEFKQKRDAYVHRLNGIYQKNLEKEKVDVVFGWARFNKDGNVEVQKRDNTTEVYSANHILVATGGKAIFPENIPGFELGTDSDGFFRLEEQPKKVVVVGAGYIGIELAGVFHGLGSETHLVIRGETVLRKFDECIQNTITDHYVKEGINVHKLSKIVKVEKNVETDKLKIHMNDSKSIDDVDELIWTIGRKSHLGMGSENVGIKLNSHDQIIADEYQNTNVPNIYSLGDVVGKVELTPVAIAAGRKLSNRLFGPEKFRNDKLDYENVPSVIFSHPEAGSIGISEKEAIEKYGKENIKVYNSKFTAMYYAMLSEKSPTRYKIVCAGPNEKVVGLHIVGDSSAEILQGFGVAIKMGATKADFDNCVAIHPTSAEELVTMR
Described as above. The note with it: remaining activity with 0,1 M Cholsäure, 100% = ohne Cholsäure; 75 µM DCIP, 100 µM NADPH, 50 mM Tris-HCl (pH 8); read-out: Mit 0, 1 M Cholsäure, U/mg Protein (%). On the procedure: as §3, §4

For assay [7], the target named is Reduktase Domäne der CYP102A1 aus Bacillus megaterium (EC 1.6.2.4), SEQ ID NO: 24 (Priestia megaterium, UniProt P14779). The assay is described as above. The following applies: remaining activity with 0,1 M Cholsäure, 100% = ohne Cholsäure; 75 µM DCIP, 100 µM NADPH, 50 mM Tris-HCl (pH 8); read-out: Mit 0, 1 M Cholsäure, U/mg Protein (%). On the procedure:
as §3, §4

Assay [8] has as its system Diaphorase aus Clostridium kluyveri. The description is as above. The note with it: remaining activity with 0,1 M Cholsäure, 100% = ohne Cholsäure; 75 µM DCIP, 100 µM NADPH, 50 mM Tris-HCl (pH 8). The method, then:
as §3, §4

12α-HSDH aus Clostridium sp. group P strain 48-50, Wildtypenzym, sequence (P21215 whole entry): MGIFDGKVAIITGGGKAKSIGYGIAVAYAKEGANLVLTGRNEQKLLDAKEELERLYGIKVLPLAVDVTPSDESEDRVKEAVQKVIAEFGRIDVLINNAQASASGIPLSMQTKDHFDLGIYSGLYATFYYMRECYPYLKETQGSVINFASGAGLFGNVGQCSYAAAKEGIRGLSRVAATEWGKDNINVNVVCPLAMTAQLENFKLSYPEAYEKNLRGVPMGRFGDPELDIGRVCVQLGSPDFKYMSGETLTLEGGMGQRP
T2 sequence (P38038 whole entry): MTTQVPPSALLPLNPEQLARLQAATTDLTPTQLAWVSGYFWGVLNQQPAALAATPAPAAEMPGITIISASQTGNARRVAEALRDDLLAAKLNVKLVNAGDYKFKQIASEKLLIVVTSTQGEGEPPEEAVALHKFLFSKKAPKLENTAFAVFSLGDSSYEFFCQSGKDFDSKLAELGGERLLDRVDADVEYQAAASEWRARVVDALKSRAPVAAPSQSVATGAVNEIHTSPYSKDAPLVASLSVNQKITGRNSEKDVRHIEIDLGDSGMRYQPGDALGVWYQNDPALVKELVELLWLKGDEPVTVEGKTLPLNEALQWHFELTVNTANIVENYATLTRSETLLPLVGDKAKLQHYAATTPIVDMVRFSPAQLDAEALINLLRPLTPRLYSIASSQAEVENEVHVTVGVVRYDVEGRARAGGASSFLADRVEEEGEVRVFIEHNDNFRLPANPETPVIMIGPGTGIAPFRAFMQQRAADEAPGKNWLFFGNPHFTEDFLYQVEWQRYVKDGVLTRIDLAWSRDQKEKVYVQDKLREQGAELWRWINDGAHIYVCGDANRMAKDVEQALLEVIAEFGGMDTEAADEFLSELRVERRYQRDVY
T1 sequence (P0AEN1 whole entry): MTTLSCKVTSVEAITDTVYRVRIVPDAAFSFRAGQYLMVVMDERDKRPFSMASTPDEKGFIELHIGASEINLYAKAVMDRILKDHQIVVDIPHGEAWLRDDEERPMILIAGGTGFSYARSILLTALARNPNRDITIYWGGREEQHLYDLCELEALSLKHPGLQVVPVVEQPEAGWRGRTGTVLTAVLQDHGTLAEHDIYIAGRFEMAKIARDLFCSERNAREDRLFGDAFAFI
T3 sequence (P28861 whole entry): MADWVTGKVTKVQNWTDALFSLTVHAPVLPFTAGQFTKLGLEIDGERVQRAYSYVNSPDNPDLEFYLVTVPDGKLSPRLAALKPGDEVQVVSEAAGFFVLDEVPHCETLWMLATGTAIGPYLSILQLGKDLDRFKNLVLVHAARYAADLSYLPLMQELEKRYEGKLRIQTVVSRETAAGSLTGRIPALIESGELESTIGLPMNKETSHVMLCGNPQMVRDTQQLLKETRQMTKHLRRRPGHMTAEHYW
Reduktase Domäne der CYP102A1 aus Bacillus megaterium (EC 1.6.2.4), SEQ ID NO: 24, sequence (P14779 473-1049): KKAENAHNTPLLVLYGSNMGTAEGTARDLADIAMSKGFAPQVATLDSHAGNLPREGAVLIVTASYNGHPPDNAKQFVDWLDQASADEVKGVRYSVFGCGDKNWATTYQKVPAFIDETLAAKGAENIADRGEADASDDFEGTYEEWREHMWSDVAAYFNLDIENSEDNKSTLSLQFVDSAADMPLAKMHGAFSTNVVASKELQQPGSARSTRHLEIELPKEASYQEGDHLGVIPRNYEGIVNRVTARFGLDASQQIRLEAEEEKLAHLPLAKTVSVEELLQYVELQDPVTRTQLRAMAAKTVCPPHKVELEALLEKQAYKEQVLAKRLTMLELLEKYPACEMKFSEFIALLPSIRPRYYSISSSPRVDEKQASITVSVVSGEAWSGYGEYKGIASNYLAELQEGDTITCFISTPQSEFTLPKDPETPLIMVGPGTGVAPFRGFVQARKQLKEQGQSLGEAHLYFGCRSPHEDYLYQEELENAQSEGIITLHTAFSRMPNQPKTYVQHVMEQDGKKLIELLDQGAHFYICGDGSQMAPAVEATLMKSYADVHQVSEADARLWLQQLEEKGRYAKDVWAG

Regarding `C[C@H](CCC(=O)O)[C@H]1CC[C@H]2[C@@H]3[C@H](O)C[C@@H]4C[C@H](O)CC[C@]4(C)[C@H]3CC(=O)[C@]12C` [12-Ketochenodesoxycholsäure], in assay [1], the “Verlust (Produktinhibierung durch 12-Ketochenodesoxycholsäure)” value is 60%.

On to `C[C@H](CCC(=O)O)[C@H]1CC[C@H]2[C@@H]3[C@H](O)C[C@@H]4C[C@H](O)CC[C@]4(C)[C@H]3C[C@H](O)[C@]12C` [Cholsäure], for which the “Mit 0, 1 M Cholsäure, U/ml E. coli Zell-Lysate (%)” value in assay [2] is on record as 22,1 (155 %); in assay [4] it was 2,1 (6 %). Further, the activity at 100000 µM in assay [3] was 5%; in assay [5], 93%; in assay [6], 15%; in assay [7] it was 35%. Besides, the “Mit 0, 1 M Cholsäure, U/mg Protein (%)” value in assay [8] is reported as 0,26 (3 %).

For the origin of these results see patent EP2333100B1, “NAD(P)+-cofactor regeneration system und its use” (priority 2009, dated 2011).
